Reference: patent US7294687B2, “Parenteral formulations of a peptide for the treatment of systemic lupus erythematosus” (TEVA Pharmaceutical Industries, Ltd., priority 2003, dated 2007)

Key:
[1] = Stability of Compound 1 versus pH, initial tests; type: physicochemical; conditions: basic pH range
Procedure: Thus, several buffers and pH adjustment agents were tested, including acetate buffer, citrate buffer and sodium carbonate. None of the initially tested buffers achieved the desired peptide solubility level. […] Nevertheless, at the initial stage, formulations with acetate buffer and citrate buffer (with Mannitol as a tonicity agent) were selected for initial toxicology studies. These formulations were tested for biological activity and proven active.

[2] = tested on: IL-2 secretion from Compound 1 reference standard (RS) specific T-cells; test: Inhibition of IL-2 secretion from Compound 1 RS specific T-cells following s.c. treatment, ELISA; type: in vivo, mice; conditions: at the range of 5-100 μg/ml activator
Text: The biological activity was monitored by inhibition of IL-2 secretion from Compound 1 reference standard (RS) specific T-cells following subcutaneous (s.c.) treatment with the lyophilized compound solution, i.e. the drug product (DP), at two concentrations. The results of the treatment are compared to those of treating mice with Compound 1 (RS) in phosphate buffered saline (PBS).

[3] = tested on: peripheral blood lymphocytes (PBL) of SLE subjects; conditions: Compound 1 in captisol®, throughout the study period
[4] = tested on: IFN-γ secretion by LN cells; test: IFN-γ secretion by cultured LN cells of immunized and treated mice, ELISA; type: in vivo, BALB/c mice
Procedure: A group of 20 mice were immunized with 50 μg/mouse of Compound 1 RS. The immunized mice were allocated to five treatment groups as follows: placebo, 25, 50, 100 and 200 μg/mouse of Compound 1 DP (subcutaneous administration). Ten days post immunization and treatment, LN was extracted and single cell suspension was prepared. The in-vitro secretion of IFN-γ and TGF-β by the cultured cells in response to activation with several concentrations of Compound 1 RS was then measured. [table] [table] […] Mice were sacrificed by cervical dislocation. LN were extracted from the hind legs and were transferred to a sterile petri dish containing about 5 mL RPMI. The cells were extracted by gentle squeezing of the tissue against a 200 micrometer mesh stainless steel net. The cells were collected and centrifuged at 300 G for 10 minutes at RT. Single cell suspensions were prepared from pooled LN of each experimental group. […] Secretion of IFN-γ and TGF-β, as indication of cellular response, were determined by ELISA of culture media (48 hrs for IFN-γ and 72 hrs for TGF-β). [table]

## H-GYYWSWIRQPPGKGEEWIG-OH [Compound 1]
[1]
  stability versus pH: less stable
[2]; treatment 50 μg/mouse s.c.
  Average inhibition (%) of IL-2 secretion: 45.6%
[2]; treatment 200 μg/mouse s.c.
  Average inhibition (%) of IL-2 secretion: 60.4%
[3]
  immunological response to TTX recall antigen: did not change the immunological response to TTX recall antigen
[4]; Compound 1 DP 25 μg/M s.c., 5 million cells/well, activation Compound 1 RS 3.125 μg/ml
  Final cytokine (IFN-γ secretion): BQL
[4]; Compound 1 DP 25 μg/M s.c., 5 million cells/well, activation Compound 1 RS 6.25 μg/ml
  Final cytokine (IFN-γ secretion): BQL
[4]; Compound 1 DP 25 μg/M s.c., 5 million cells/well, activation Compound 1 RS 12.5 μg/ml
  Final cytokine (IFN-γ secretion): 41.9 pg/mL
[4]; Compound 1 DP 25 μg/M s.c., 5 million cells/well, activation Compound 1 RS 50 μg/ml
  Final cytokine (IFN-γ secretion): 104.2 pg/mL
[4]; Compound 1 DP 25 μg/M s.c., 5 million cells/well, activation Compound 1 RS 100 μg/ml
  Final cytokine (IFN-γ secretion): 185.2 pg/mL
[4]; Compound 1 DP 25 μg/M s.c., 5 million cells/well, activation Compound 1 RS 25 μ/ml
  Final cytokine (IFN-γ secretion): 70.0 pg/mL
[4]; Compound 1 DP 25 μg/M s.c., 5 million cells/well, activation Con A
  Final cytokine (IFN-γ secretion): 2995.3 pg/mL
[4]; Compound 1 DP 50 μg/M s.c., 2.5 million cells/well, activation Compound 1 RS 3.125 μg/ml
  Final cytokine (IFN-γ secretion): 54.1 pg/mL
[4]; Compound 1 DP 50 μg/M s.c., 2.5 million cells/well, activation Compound 1 RS 6.25 μg/ml
  Final cytokine (IFN-γ secretion): 81.8 pg/mL
[4]; Compound 1 DP 50 μg/M s.c., 2.5 million cells/well, activation Compound 1 RS 12.5 μg/ml
  Final cytokine (IFN-γ secretion): 123.1 pg/mL
[4]; Compound 1 DP 50 μg/M s.c., 2.5 million cells/well, activation Compound 1 RS 50 μg/ml
  Final cytokine (IFN-γ secretion): 292.5 pg/mL
[4]; Compound 1 DP 50 μg/M s.c., 2.5 million cells/well, activation Compound 1 RS 100 μg/ml
  Final cytokine (IFN-γ secretion): 531.8 pg/mL
[4]; Compound 1 DP 50 μg/M s.c., 2.5 million cells/well, activation Compound 1 RS 25 μ/ml
  Final cytokine (IFN-γ secretion): 215.1 pg/mL
[4]; Compound 1 DP 50 μg/M s.c., 2.5 million cells/well, activation Con A
  Final cytokine (IFN-γ secretion): 356.2 pg/mL
[4]; Compound 1 DP 50 μg/M s.c., 5 million cells/well, activation Compound 1 RS 3.125 μg/ml
  Final cytokine (IFN-γ secretion): 76.2 pg/mL
[4]; Compound 1 DP 50 μg/M s.c., 5 million cells/well, activation Compound 1 RS 6.25 μg/ml
  Final cytokine (IFN-γ secretion): 109.2 pg/mL
[4]; Compound 1 DP 50 μg/M s.c., 5 million cells/well, activation Compound 1 RS 12.5 μg/ml
  Final cytokine (IFN-γ secretion): 179.5 pg/mL
[4]; Compound 1 DP 50 μg/M s.c., 5 million cells/well, activation Compound 1 RS 50 μg/ml
  Final cytokine (IFN-γ secretion): 373.4 pg/mL
[4]; Compound 1 DP 50 μg/M s.c., 5 million cells/well, activation Compound 1 RS 100 μg/ml
  Final cytokine (IFN-γ secretion): 547.0 pg/mL
[4]; Compound 1 DP 50 μg/M s.c., 5 million cells/well, activation Compound 1 RS 25 μ/ml
  Final cytokine (IFN-γ secretion): 277.9 pg/mL
[4]; Compound 1 DP 50 μg/M s.c., 5 million cells/well, activation Con A
  Final cytokine (IFN-γ secretion): 4837.0 pg/mL
[4]; Compound 1 DP 100 μg/M s.c., 2.5 million cells/well, activation Compound 1 RS 3.125 μg/ml
  Final cytokine (IFN-γ secretion): 64.5 pg/mL
[4]; Compound 1 DP 100 μg/M s.c., 2.5 million cells/well, activation Compound 1 RS 6.25 μg/ml
  Final cytokine (IFN-γ secretion): 116.1 pg/mL
[4]; Compound 1 DP 100 μg/M s.c., 2.5 million cells/well, activation Compound 1 RS 12.5 μg/ml
  Final cytokine (IFN-γ secretion): 180.9 pg/mL
[4]; Compound 1 DP 100 μg/M s.c., 2.5 million cells/well, activation Compound 1 RS 50 μg/ml
  Final cytokine (IFN-γ secretion): 518.3 pg/mL
[4]; Compound 1 DP 100 μg/M s.c., 2.5 million cells/well, activation Compound 1 RS 100 μg/ml
  Final cytokine (IFN-γ secretion): 582.7 pg/mL
[4]; Compound 1 DP 100 μg/M s.c., 2.5 million cells/well, activation Compound 1 RS 25 μ/ml
  Final cytokine (IFN-γ secretion): 262.8 pg/mL
[4]; Compound 1 DP 100 μg/M s.c., 2.5 million cells/well, activation Con A
  Final cytokine (IFN-γ secretion): 337.4 pg/mL
[4]; Compound 1 DP 100 μg/M s.c., 5 million cells/well, activation Compound 1 RS 3.125 μg/ml
  Final cytokine (IFN-γ secretion): 90.8 pg/mL
[4]; Compound 1 DP 100 μg/M s.c., 5 million cells/well, activation Compound 1 RS 6.25 μg/ml
  Final cytokine (IFN-γ secretion): 157.8 pg/mL
